Results taken from patent publication US20230295157A1, “3-(1H-IMIDAZOL-2-YL)-2,3,8,8A-TETRAHYDROINDOLIZIN-5(1H)-ONE DERIVATIVES USEFUL AS FACTOR XIA INHIBITORS” (JANSSEN PHARMACEUTICA NV, priority 2020, published 2023).
Read-outs that look alike come from different tables or passages of the source.

Experiments:
Factor XIa = Factor XIa (Homo sapiens (Human), UniProt P03951); test: Factor XIa inhibition assay (FLINT) utilizing a fluorophore-quencher pair peptide substrate; assay type: biochemical; conditions: 30 min preincubation, kinetic reads over 30 min, read-out: FXIa Kin Inh IC50
Factor XIa, sequence (P03951 388-625): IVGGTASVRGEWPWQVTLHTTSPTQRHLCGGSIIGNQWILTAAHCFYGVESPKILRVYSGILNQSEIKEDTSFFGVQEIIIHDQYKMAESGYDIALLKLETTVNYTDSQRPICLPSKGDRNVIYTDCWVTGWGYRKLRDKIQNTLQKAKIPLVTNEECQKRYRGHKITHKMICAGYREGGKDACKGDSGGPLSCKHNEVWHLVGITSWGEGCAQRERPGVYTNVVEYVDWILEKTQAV
Factor XIa, sequence (P03951 19-387 partner): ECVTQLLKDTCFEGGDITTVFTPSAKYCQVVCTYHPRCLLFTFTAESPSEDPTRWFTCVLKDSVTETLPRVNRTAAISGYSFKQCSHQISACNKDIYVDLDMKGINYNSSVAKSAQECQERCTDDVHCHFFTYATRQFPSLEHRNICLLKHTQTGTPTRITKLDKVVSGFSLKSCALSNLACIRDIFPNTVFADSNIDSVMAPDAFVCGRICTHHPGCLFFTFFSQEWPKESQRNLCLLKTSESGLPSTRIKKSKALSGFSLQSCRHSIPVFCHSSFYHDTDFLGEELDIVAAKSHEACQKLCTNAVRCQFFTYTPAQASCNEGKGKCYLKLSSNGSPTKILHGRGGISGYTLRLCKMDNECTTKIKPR
Method in brief: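 FXIa ([…]) preincubated 30 min with compound (11-point 3-fold dilution, top 100 nM, 2% DMSO), then 15 μM quenched FXI Arg146-based peptide added; Tris pH 7.5, CaCl2, BSA, CHAPS. Fluorescence 485/520 nm read kinetically every 5 min over 30 min at RT; IC50 by 4-parameter fit.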

human plasma kallikrein = human plasma kallikrein (Homo sapiens (Human), UniProt P03952); test: Kallikrein inhibition assay (FLINT) utilizing a quenched AMC peptide substrate; assay type: biochemical; conditions: 30 min preincubation, read-out: Kallikrein Kin Inh IC50
human plasma kallikrein, sequence (P03952 391-638): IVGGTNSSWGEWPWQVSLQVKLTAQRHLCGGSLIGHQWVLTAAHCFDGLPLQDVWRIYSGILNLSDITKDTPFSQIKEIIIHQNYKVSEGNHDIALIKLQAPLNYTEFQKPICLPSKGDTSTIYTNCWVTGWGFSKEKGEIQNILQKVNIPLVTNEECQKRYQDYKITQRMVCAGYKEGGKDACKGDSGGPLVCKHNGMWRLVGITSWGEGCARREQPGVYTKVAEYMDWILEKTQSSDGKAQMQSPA
human plasma kallikrein, sequence (P03952 20-390 partner): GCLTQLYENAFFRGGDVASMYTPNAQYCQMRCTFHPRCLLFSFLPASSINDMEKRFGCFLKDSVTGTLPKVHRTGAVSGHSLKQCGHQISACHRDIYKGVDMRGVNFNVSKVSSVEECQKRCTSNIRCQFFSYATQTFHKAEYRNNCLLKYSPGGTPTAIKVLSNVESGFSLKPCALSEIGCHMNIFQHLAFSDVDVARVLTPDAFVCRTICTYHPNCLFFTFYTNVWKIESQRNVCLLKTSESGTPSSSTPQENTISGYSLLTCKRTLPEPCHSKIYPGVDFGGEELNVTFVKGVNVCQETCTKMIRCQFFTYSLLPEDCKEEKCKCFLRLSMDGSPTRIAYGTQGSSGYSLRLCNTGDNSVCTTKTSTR
Method in brief: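 Fluorogenic Z-Gly-Pro-Arg-AMC cleavage (50 μM substrate, 2 nM kallikrein, Tris pH 7.5, CaCl2, BSA, CHAPS, 2% DMSO) read kinetically at 340/440 nm for 30 min after 30-min compound pre-incubation. Compounds in 11-point 3-fold series from 1 μM; percent inhibition fitted to four-parameter equation for IC50.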

[1] = 5Fam-KLTRAETV-K5Tamra substrate 15 μM
[2] = kinetic reads over 30 min, Z-Gly-Pro-Arg-AMC substrate 50 μM

| SMILES | IC50 (Factor XIa; [1]) [nM] | IC50 (human plasma kallikrein; [2]) [µM] | IC50 (human plasma kallikrein; μM, kinetic reads) [µM] | IC50 (Factor XIa; 5Fam-[…]-K5Tamra substrate 15 μM) [nM] |
| --- | --- | --- | --- | --- |
| CCOC(=O)Nc1ccncc1-c1c[nH]c([C@@H]2CC[C@H]3CC(c4c(-n5cnnn5)ccc(Cl)c4F)=CC(=O)N32)n1 [Example 268, Ethyl N-[3-[2-[(3S,8aS)-7-[3-chloro-2-fluoro-6-(tetrazol-1-yl)phenyl]-5-oxo-2,3,8,8a-tetrahydro-1H-indolizin-3-yl]-1H-imidazol-4-yl]-4-pyridyl]carbamate] | 68.1 | 0.286 | – | – |
| CNc1ncccc1-c1cnc([C@@H]2CC[C@H]3CC(c4c(-n5cnnn5)ccc(Cl)c4F)=CC(=O)N32)[nH]1 [Example 269, (3S,8aS)-7-[3-Chloro-2-fluoro-6-(tetrazol-1-yl)phenyl]-3-[5-[2-(methylamino)-3-pyridyl]-1H-imidazol-2-yl]-2,3,8,8a-tetrahydro-1H-indolizin-5-one] | > 100 | 0.793 | – | – |
| O=C1C=C(c2c(-n3cnnn3)ccc(Cl)c2F)C[C@@H]2CC[C@@H](c3ncc(-c4ccc5[nH]c(=O)ccc5c4)[nH]3)N12 [Example 270, 6-[2-[(3S,8aS)-7-[3-Chloro-2-fluoro-6-(tetrazol-1-yl)phenyl]-5-oxo-2,3,8,8a-tetrahydro-1H-indolizin-3-yl]-1H-imidazol-5-yl]-1H-quinolin-2-one] | 0.2 | 0.0004 | – | – |
| Nc1ccncc1-c1c[nH]c([C@@H]2CC[C@H]3CC(c4c(-n5cnnn5)ccc(Cl)c4F)=CC(=O)N32)n1 [Example 272, (3S,8aS)-3-(4-(4-Aminopyridin-3-yl)-1H-imidazol-2-yl)-7-(3-chloro-2-fluoro-6-(1H-tetrazol-1-yl)phenyl)-2,3,8,8a-tetrahydroindolizin-5(1H)-one] | > 100 | – | > 1 | – |
| O=C1C=C(c2c(-n3cnnn3)ccc(Cl)c2F)CC2CC[C@@H](c3ncc(-c4ccc5[nH]c(=O)ncc5c4)[nH]3)N12 (stereo partly drawn) [Example 273, 6-(2-((3S)-7-(3-Chloro-2-fluoro-6-(1H-tetrazol-1-yl)phenyl)-5-oxo-1,2,3,5,8,8a-hexahydroindolizin-3-yl)-1H-imidazol-5-yl)quinazolin-2(1H)-one] | 0.5 | 0.002 | – | – |
| Cn1cnc(-c2c[nH]c([C@@H]3CC[C@H]4CC(c5c(-n6cnnn6)ccc(Cl)c5F)=CC(=O)N43)n2)n1 [Example 274, (3S,8aS)-7-(3-Chloro-2-fluoro-6-(1H-tetrazol-1-yl)phenyl)-3-(4-(1-methyl-1H-1,2,4-triazol-3-yl)-1H-imidazol-2-yl)-2,3,8,8a-tetrahydroindolizin-5(1H)-one] | > 100 | – | > 1 | – |
| Cn1cc(NC(=O)C2CC2)c(-c2c[nH]c([C@@H]3CC[C@H]4CC(c5c(-n6cnnn6)ccc(Cl)c5F)=CC(=O)N43)n2)n1 [Example 275, N-(3-(2-((3S,8aS)-7-(3-Chloro-2-fluoro-6-(1H-tetrazol-1-yl)phenyl)-5-oxo-1,2,3,5,8,8a-hexahydroindolizin-3-yl)-1H-imidazol-4-yl)-1-methyl-1H-pyrazol-4-yl)cyclopropanecarboxamide] | 24.4 | 0.0156 | – | – |
| COc1ccc(-c2c[nH]c([C@@H]3CCC4CC(c5c(-n6cnnn6)ccc(Cl)c5F)=CC(=O)N43)n2)c(NC(=O)C2CC2)c1 (stereo partly drawn) [Example 276, N-(2-(2-((3S)-7-(3-Chloro-2-fluoro-6-(1H-tetrazol-1-yl)phenyl)-5-oxo-1,2,3,5,8,8a-hexahydroindolizin-3-yl)-1H-imidazol-4-yl)-5-methoxyphenyl)cyclopropanecarboxamide] | 0.6 | 0.0012 | – | – |
| O=C1Cc2cc(-c3cnc([C@@H]4CC[C@H]5CC(c6c(-n7cnnn7)ccc(Cl)c6F)=CC(=O)N54)[nH]3)ccc2N1 [Example 283, 5-(2-((3S,8aS)-7-(3-Chloro-2-fluoro-6-(1H-tetrazol-1-yl)phenyl)-5-oxo-1,2,3,5,8,8a-hexahydroindolizin-3-yl)-1H-imidazol-5-yl)indolin-2-one] | 3.5 | 0.0059 | – | – |
| CO[C@H]1C[C@@H](c2nc(-c3ccc(N)nc3F)c[nH]2)N2C(=O)C=C(c3c(-n4cnnn4)ccc(Cl)c3F)CC12 (stereo partly drawn) [Example 285, (1 S,3S)-3-(4-(6-Amino-2-fluoropyridin-3-yl)-1H-imidazol-2-yl)-7-(3-chloro-2-fluoro-6-(1H-tetrazol-1-yl)phenyl)-1-methoxy-2,3,8,8a-tetrahydroindolizin-5(1H)-one] | 9.1 | 0.207 | – | – |
| CNC(=O)c1ccccc1-c1cnc([C@@H]2CCC3CC(c4c(-n5cnnn5)ccc(Cl)c4F)=CC(=O)N32)[nH]1 (stereo partly drawn) [Example 287, 2-(2-((3S)-7-(3-chloro-2-fluoro-6-(1H-tetrazol-1-yl)phenyl)-5-oxo-1,2,3,5,8,8a-hexahydroindolizin-3-yl)-1H-imidazol-5-yl)-N-methylbenzamide] | ~30.4 | 0.38 | – | – |
| CN(C)C(=O)c1ccccc1-c1c[nH]c([C@@H]2CCC3CC(c4c(-n5cnnn5)ccc(Cl)c4F)=CC(=O)N32)n1 (stereo partly drawn) [Example 288, 2-(2-((3S)-7-(3-Chloro-2-fluoro-6-(1H-tetrazol-1-yl)phenyl)-5-oxo-1,2,3,5,8,8a-hexahydroindolizin-3-yl)-1H-imidazol-4-yl)-N,N-dimethylbenzamide] | > 200 | – | 1.1 | – |
| CN(C)c1ccccc1-c1c[nH]c([C@@H]2CCC3CC(c4c(-n5cnnn5)ccc(Cl)c4F)=CC(=O)N32)n1 (stereo partly drawn) [Example 289, (3S)-7-(3-Chloro-2-fluoro-6-(1H-tetrazol-1-yl)phenyl)-3-(4-(2-(dimethylamino)phenyl)-1H-imidazol-2-yl)-2,3,8,8a-tetrahydroindolizin-5(1H)-one] | – | 0.492 | – | > 200 |
| NC(=O)c1ccccc1-c1cnc([C@@H]2CCC3CC(c4c(-n5cnnn5)ccc(Cl)c4F)=CC(=O)N32)[nH]1 (stereo partly drawn) [Example 290, 2-(2-((3S)-7-(3-Chloro-2-fluoro-6-(1H-tetrazol-1-yl)phenyl)-5-oxo-1,2,3,5,8,8a-hexahydroindolizin-3-yl)-1H-imidazol-5-yl)benzamide] | 134 | – | 1.2 | – |
| CNc1ccc(-c2cnc([C@@H]3CC[C@H]4CC(c5c(-n6cnnn6)ccc(Cl)c5F)=CC(=O)N43)[nH]2)c(F)n1 [Example 291, (3S,8aS)-7-(3-Chloro-2-fluoro-6-(1H-tetrazol-1-yl)phenyl)-3-(5-(2-fluoro-6-(methylamino)pyridin-3-yl)-1H-imidazol-2-yl)-2,3,8,8a-tetrahydroindolizin-5(1H)-one] | 0.5 | 0.0074 | – | – |
| O=C1C=C(c2c(-n3cnnn3)ccc(Cl)c2F)C[C@@H]2CC[C@@H](c3ncc(-c4ccc5[nH]c(=O)[nH]c5c4)[nH]3)N12 [Example 292, 5-(2-((3S,8aS)-7-(3-Chloro-2-fluoro-6-(1H-tetrazol-1-yl)phenyl)-5-oxo-1,2,3,5,8,8a-hexahydroindolizin-3-yl)-1H-imidazol-5-yl)-1,3-dihydro-2H-benzo[d]imidazol-2-one] | 0.3 | 0.0007 | – | – |
| CS(=O)(=O)Nc1ccccc1-c1c[nH]c([C@@H]2CCC3CC(c4c(-n5cnnn5)ccc(Cl)c4F)=CC(=O)N32)n1 (stereo partly drawn) [Example 293, N-(2-(2-((3S)-7-(3-Chloro-2-fluoro-6-(1H-tetrazol-1-yl)phenyl)-5-oxo-1,2,3,5,8,8a-hexahydroindolizin-3-yl)-1H-imidazol-4-yl)phenyl)methanesulfonamide] | 79.7 | – | 1.2 | – |
| CC(C)Oc1ccccc1-c1cnc([C@@H]2CCC3CC(c4c(-n5cnnn5)ccc(Cl)c4F)=CC(=O)N32)[nH]1 (stereo partly drawn) [Example 294] | 77 | 0.0462 | – | – |
